In patent US7166472B2, “Method for the identification of agents that inhibit or promote cataracts and uses thereof” (The General Hospital Corporation, priority 2000, dated 2007):

Key:
[1] = Metal reduction assay, Cu(II) to Cu(I) (BC/BCA indicator); type: biochemical; conditions: test compound 10 μM, Cu(II)-glycine 25 μM, PBS pH 7.4, 37° C., dark, one hour
Procedure: Metal Reduction Assays—Assays were performed using a 96-well microtiter plate (Costar, Mass.). Test compounds from the kynurenine pathway (10 μM) or, as a positive control, ascorbic acid (ASC, 10 μM) were co-incubated with either Fe(III)-citrate (25 μM) and the Fe(II) indicator bathophenanthroline disulfonic acid (BP, 250 μM), or Cu(II)-glycine (25 μM) and the Cu(I) indicator bathocuproine disulfonic acid (BC) or bicinchoninic acid (BCA, 250 μM). Incubations were conducted in PBS, pH 7.4, at 37° C. in the dark for one hour. Absorbencies were then measured using a plate reader (SPECTRAmax Plus, Molecular Devices, CA) at the appropriate wavelengths: Fe(II)-BP complex at 535 nm (the known molar absorption coefficient, M535,=22140 M^−1 cm^−1), Cu(I)-BC complex at 483 nm, M483=12250 M^−1cm^−1), or Cu(I)-BCA complex at 562 nm, M562=7700 M^−1cm^−1). In control samples, absorbance from the metal ion and indicator in the absence of test compound and the absorbance of test compound in the presence of metal ions, but in the absence of indicator, were determined. The absorbencies from these controls were deducted from those obtained in the presence of the test compound, metal and indicator to yield the net absorbance (ΔA). Fe(II) or Cu(I) concentrations (μM) were calculated according to the formula: C(μM)=ΔA*10^6/Mλ.
The compounds comprising the kynurenine pathway (FIG. 1) were assayed for their ability to reduce […] and Cu(II) (FIG. 2A). […] Values represent the mean±SD for three independent measurements.

[2] = Cyclic voltammetry of kynurenine metabolites with Cu(II); type: physicochemical; conditions: metabolite 100 μM, cupric chloride 25 μM, PBS pH 7.4
Procedure: Cyclic Voltammetry—Cyclic voltammetry was performed at room temperature (22±2° C.) on ambient solutions using an EG&G PAR potentiostat, Model 273. The potentiostat was operated in Ramp Mode, generating a potential staircase waveform with a 0.25 mV step height. The potential window of +0.15 to −0.4V, in which Cu(I) is electroactive, but the metabolites are not, was scanned in both directions at a rate of 100 mV/sec. The current response was passed through a 5.3 Hz low pass filter. A minimum of three cycles were collected for each scan, ensuring the stability of the electrochemical response. The electrochemical cell consisted of an indium/tin oxide working electrode (Delta Technologies) with an active area of 0.32 cm^2, a platinum wire auxiliary electrode, and a Ag/AgCl (1 M KCl) reference electrode (Microelectrodes Inc.). Both the auxiliary and reference electrodes were positioned in the cell in close proximity to the working electrode. The working electrodes were pretreated with successive 10 minute sonications in Alconox (˜8 g/L), 95% ethanol, Milli-Q purified H2O (2×), and PBS (pH 7.4), followed by an overnight soak in PBS (pH 7.4). The ITO electrodes were subsequently “activated” immediately prior to use by successive cycling in PBS for three cycles in each of the following potential windows: +0.15 ? −0.4 V, +0.4 ? −0.4 V, and +1.0 ? −0.4 V. Cupric chloride (25 μM; Allied Chemical) was used as the Cu(II) source. Background voltammograms were obtained on each new electrode before testing the kynurenine pathway metabolites. PBS solutions of KYN, 3-HK, ANA, and 3-HAA (each at 100 μM) were separately scanned with and without added Cu(II) (25 μM). Each experiment also included a scan of Cu(II) (25 μM) in PBS without added test compound. All solutions were tested within minutes of being prepared. Each test was repeated to ensure the reproducibility of the results.
The voltammograms in FIGS. 3A–3D compare 3-HK and 3-HAA to their corresponding non-phenolic analogs, kynurenine (KYN) and anthranilic acid (ANA), in aqueous solutions of Cu(II) at pH 7.4. […] At potentials above +0.15 V, the metabolites undergo direct irreversible oxidation, a reaction that is not considered further here. Cyclic voltammetry of Cu(II) in PBS yielded a current response at ≈−100 mV due to reduction of the metal ion (scan “b” in each panel).

[3] = Thiobarbituric acid-reactive substance (TBARS) assay for hydroxyl radical; type: biochemical; conditions: reaction with Cu(II)
Source text: Although two Fenton chemistry substrates, hydrogen peroxide and reduced redox-active metal, are produced by 3-HK and 3-HAA, evidence of the hydroxyl radical was not detected using the thiobarbituric acid-reactive substance assay (Huang, X. et al., Biochem. 38:7609–7616 (1999)) (data not shown).

[4] = Superoxide assay (dihydroethidium fluorometric); type: biochemical; conditions: test compound 10 μM
Procedure: Superoxide Assay—The fluorometric assay for superoxide is based upon the dihydroethidium (DHE, HYDROETHDNE™) method (Molecular Probes, Eugene, Oreg.) and used according to the manufacturer's instructions. DHE (1 mM) was freshly prepared in 100% argon-sparged DMSO. The reaction solutions were carried out in PBS, pH 7.4, under ambient gas conditions, in 96-well format plates and contained a test compound (KYN, 3-HK, 3-HAA, and ANA, each at 10 μM), DHE (100 μM), +/− Cu(II)-glycine (1 μM) and incubated at 37EC for 60 minutes. […] Abolition of the reading by co-incubation with superoxide dismutase (1000 U/ml) was used for establishing superoxide specificity. The fluorescent readings were recorded by a Packard FLUOROCOUNT™ fluorescent plate reader with a 510 nm excitation filter and 590 nm emission filter. Potassium superoxide dissolved in degassed DMSO was used as a positive control.

[5] = target: bovine serum albumin (BSA) (Bos taurus, UniProt P02769); conditions: co-incubation with Cu(II), 5 days 37° C. dark
Sequence of bovine serum albumin (BSA) (P02769 25-607): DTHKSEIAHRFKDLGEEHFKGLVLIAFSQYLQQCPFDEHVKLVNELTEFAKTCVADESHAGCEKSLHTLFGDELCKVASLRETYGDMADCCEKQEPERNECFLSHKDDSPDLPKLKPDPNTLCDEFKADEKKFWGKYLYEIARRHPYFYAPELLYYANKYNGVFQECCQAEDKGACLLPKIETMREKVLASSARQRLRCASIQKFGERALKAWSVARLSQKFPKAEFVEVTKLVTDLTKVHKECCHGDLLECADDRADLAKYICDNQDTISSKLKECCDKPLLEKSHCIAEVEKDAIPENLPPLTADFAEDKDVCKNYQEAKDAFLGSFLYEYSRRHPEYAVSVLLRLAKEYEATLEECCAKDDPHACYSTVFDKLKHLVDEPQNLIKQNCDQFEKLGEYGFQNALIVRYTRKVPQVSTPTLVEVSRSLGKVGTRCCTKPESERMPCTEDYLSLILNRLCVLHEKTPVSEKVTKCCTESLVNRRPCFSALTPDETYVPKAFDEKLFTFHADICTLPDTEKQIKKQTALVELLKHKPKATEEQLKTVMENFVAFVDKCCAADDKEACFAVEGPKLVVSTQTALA

αB-crystallin = target: T1, αB-crystallin (Bos taurus, UniProt P02510); test: αB-crystallin cross-linking in total calf lens protein (Western blot); conditions: metabolite 10 μM, five days 37° C. dark
T1 sequence (P02510 1-175): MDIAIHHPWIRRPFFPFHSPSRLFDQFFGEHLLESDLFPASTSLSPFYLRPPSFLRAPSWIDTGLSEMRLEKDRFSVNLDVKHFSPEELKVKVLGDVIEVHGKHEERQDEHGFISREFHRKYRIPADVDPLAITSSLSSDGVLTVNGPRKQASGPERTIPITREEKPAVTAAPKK

αB-crystallin cross-linking in the presence of Cu(II) (αB-crystallin; Cu(II) 10 μM): dramatically enhanced
Structure (SMILES): Nc1c(O)cccc1C(=O)CC(N)C(=O)O (centres unmarked) [3-HK, 3-hydroxykynurenine]
reduction of Cu(II) [1]: 100%
Cu(II) reduction wave in presence of metabolite [2]: nearly abolished
evidence of the hydroxyl radical [3]: not detected
effect of Cu(II) on superoxide generation ([4]; Cu(II)-glycine 1 μM): did not promote
superoxide production ([4]; ambient oxygen, dark, 60 minutes): negligible
BSA protein depletion with Cu(II) [5]: the monomer was depleted without emergence of apparent detectable cross-linked species
αB-crystallin cross-linking (αB-crystallin; no added Cu(II)): apparent dimers and higher order oligomers were observed
